Measurements reported in ChEMBL document CHEMBL3774340, “Structure-Guided Design of IACS-9571, a Selective High-Affinity Dual TRIM24-BRPF1 Bromodomain Inhibitor” (J Med Chem, 2016).
≈ marks a conversion by molar mass, not a printed value.

What was measured:
[1] = target: T1, Transcription intermediary factor 1-alpha (Homo sapiens, UniProt O15164); assay: Inhibition of recombinant human His-tagged TRIM24-PHD/bromodomain expressed in Escherichia coli strains BL21 (DE3) cells using biotinylated H3K23ac (1 to 33 residues) peptide after 1 hr by AlphaScreen assay
T1 sequence (O15164 whole entry): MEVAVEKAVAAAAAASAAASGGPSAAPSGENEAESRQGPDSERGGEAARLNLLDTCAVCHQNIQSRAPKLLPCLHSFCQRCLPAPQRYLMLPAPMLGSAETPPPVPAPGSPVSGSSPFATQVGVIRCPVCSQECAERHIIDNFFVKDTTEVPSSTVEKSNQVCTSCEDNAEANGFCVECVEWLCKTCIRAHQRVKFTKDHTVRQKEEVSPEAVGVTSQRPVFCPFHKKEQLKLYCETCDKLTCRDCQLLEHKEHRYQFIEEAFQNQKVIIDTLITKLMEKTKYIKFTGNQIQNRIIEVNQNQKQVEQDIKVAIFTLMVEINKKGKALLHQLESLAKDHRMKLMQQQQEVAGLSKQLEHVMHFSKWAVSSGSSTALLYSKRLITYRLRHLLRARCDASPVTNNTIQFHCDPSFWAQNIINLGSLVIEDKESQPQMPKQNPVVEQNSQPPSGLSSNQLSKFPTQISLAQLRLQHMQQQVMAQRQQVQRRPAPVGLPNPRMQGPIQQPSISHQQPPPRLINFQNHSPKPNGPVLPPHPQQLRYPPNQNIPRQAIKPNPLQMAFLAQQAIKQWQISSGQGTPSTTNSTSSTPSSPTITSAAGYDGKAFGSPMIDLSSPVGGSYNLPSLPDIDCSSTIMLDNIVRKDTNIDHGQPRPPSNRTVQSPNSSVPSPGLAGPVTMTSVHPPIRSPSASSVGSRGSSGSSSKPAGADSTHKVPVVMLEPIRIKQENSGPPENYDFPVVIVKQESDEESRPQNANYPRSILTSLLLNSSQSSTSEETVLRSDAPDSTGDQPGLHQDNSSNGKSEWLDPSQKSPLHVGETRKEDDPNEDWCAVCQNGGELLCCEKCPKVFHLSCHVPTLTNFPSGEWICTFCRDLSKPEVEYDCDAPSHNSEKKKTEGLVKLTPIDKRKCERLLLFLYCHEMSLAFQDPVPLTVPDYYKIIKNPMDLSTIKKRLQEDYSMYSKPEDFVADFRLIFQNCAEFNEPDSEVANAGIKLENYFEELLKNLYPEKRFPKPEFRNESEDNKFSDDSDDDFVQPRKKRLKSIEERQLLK

[2] = target: T1, Transcription intermediary factor 1-alpha; assay: Inhibition of Flag-tagged TRIM24-PHD/bromodomain (unknown origin) expressed in human HeLa cells for 2 hrs by AlphaLisa assay; assay type: cell-based
[3] = Kinetic solubility of compound in phosphate buffer at pH 7
[4] = Apparent permeability from apical to basolateral side in human Caco2 cells; conditions: Caco-2
[5] = Oral bioavailability in CD1 mouse at 10 mg/kg; assay type: ADME, organism-based; conditions: in vivo
[6] = Terminal half life in CD1 mouse at 1 mg/kg, iv; assay type: ADME, organism-based; conditions: in vivo, read-out: beta t1/2 (converted)
[7] = Clearance in CD1 mouse at 1 mg/kg, iv; assay type: ADME, organism-based; conditions: in vivo

Compound	IC50 [1]	EC50 [2]	solubility kinetic [3]	other results
CSc1ccc(S(=O)(=O)Nc2ccc3c(c2)CCC(=O)N3C)cc1	4800 nM	–	–	–
Cc1nc(S(=O)(=O)Nc2cc3c(cc2Oc2cccc(OCc4ccccc4)c2)n(C)c(=O)n3C)cn1C	270 nM	4900 nM	–	–
Cc1nc(S(=O)(=O)Nc2cc3c(cc2Oc2cccc(OCC(C)C)c2)n(C)c(=O)n3C)cn1C	57 nM	–	87 µM (≈ 43.5 µg/mL)	–
Cn1cnc(S(=O)(=O)Nc2cc3c(cc2Oc2cccc(OCC4CCOC4)c2)n(C)c(=O)n3C)c1 (configuration not stated)	100 nM	1900 nM	77 µM (≈ 39.5 µg/mL)	–
COc1cc2c(cc1NS(=O)(=O)c1ccccc1)CCC(=O)N2C	36000 nM	–	–	–
Cn1c(=O)n(C)c2cc(NS(=O)(=O)c3ccc(C4CCCCC4)cc3)ccc21	1700 nM	–	–	–
CCOc1cccc(Oc2cc3c(cc2NS(=O)(=O)c2cn(C)c(C)n2)n(C)c(=O)n3C)c1	180 nM	2300 nM	74 µM (≈ 34.9 µg/mL)	–
CCCOc1cc(OCCCCCN)cc(Oc2cc3c(cc2NS(=O)(=O)c2cn(C)cn2)n(C)c(=O)n3C)c1	11 nM	110 nM	–	–
CCCOc1cc(OCCCCN)cc(Oc2cc3c(cc2NS(=O)(=O)c2cn(C)cn2)n(C)c(=O)n3C)c1	7.9 nM	120 nM	–	–
Cn1cnc(S(=O)(=O)Nc2cc3c(cc2Oc2ccc(OCc4ccccc4)cc2)n(C)c(=O)n3C)c1	2000 nM	> 33000 nM	–	–
Cc1nc(-c2ccc3c(c2)CC(=O)N3C)cs1	8500 nM	–	–	–
CCCOc1cc(OCCCCCCO)cc(Oc2cc3c(cc2NS(=O)(=O)c2cn(C)cn2)n(C)c(=O)n3C)c1	60 nM	1800 nM	–	–
CCCCOc1cccc(Oc2cc3c(cc2NS(=O)(=O)c2cn(C)c(C)n2)n(C)c(=O)n3C)c1	160 nM	3000 nM	–	–
Cn1c(=O)n(C)c2cc(NS(=O)(=O)c3ccccc3)ccc21	23000 nM	–	–	–
CCCOc1cc(OCCCCCCN)cc(Oc2cc3c(cc2NS(=O)(=O)c2ccc(OC)c(OC)c2)n(C)c(=O)n3C)c1	13 nM	170 nM	–	–
CN1C(=O)CCc2cc(NS(=O)(=O)c3ccc(C4CCCCC4)cc3)ccc21	2800 nM	–	–	–
COc1ccc(S(=O)(=O)Nc2cc3c(cc2Oc2cccc(OCc4ccccc4)c2)n(C)c(=O)n3C)cc1OC	140 nM	3900 nM	0.6 µM (≈ 0.345 µg/mL)	Papp A→B [4]: 21 ×10⁻⁶ cm/s
CSc1ccc(S(=O)(=O)Nc2ccc3c(c2)N(C)C(=O)CC3)cc1	14000 nM	–	–	–
CSc1ccc(S(=O)(=O)Nc2ccc3c(c2)CC(=O)N3C)cc1	17000 nM	–	–	–

Compound	IC50 [1]	EC50 [2]	solubility kinetic [3]	other results
CCCOc1cccc(Oc2cc3c(cc2NS(=O)(=O)c2cn(C)c(C)n2)n(C)c(=O)n3C)c1	53 nM	950 nM	62 µM (≈ 30.1 µg/mL)	–
COCCCOc1cccc(Oc2cc3c(cc2NS(=O)(=O)c2cn(C)c(C)n2)n(C)c(=O)n3C)c1	130 nM	2700 nM	100 µM (≈ 51.6 µg/mL)	–
COc1cc2c(cc1NS(=O)(=O)c1cccc(C#N)c1)n(C)c(=O)n2C	10000 nM	–	–	–
COc1ccc(S(=O)(=O)Nc2ccc3c(c2)n(C)c(=O)n3C)cc1	9300 nM	–	–	–
CCCOc1cc(OCCCN)cc(Oc2cc3c(cc2NS(=O)(=O)c2ccc(OC)c(OC)c2)n(C)c(=O)n3C)c1	13 nM	120 nM	–	–
CC(C)COc1cccc(Oc2ccc3c(c2)n(C)c(=O)n3C)c1	2400 nM	> 36000 nM	2.6 µM (≈ 0.849 µg/mL)	–
CCCOc1cccc(Oc2cc3c(cc2NS(=O)(=O)c2ccc(OC)c(OC)c2)n(C)c(=O)n3C)c1	43 nM	830 nM	1.1 µM (≈ 0.58 µg/mL)	–
CC(C)COc1cccc(Oc2cc3c(cc2NS(=O)(=O)C2CC2)n(C)c(=O)n3C)c1	110 nM	5000 nM	0.78 µM (≈ 0.348 µg/mL)	–
COc1ccc(S(=O)(=O)Nc2ccc3c(c2)CCC(=O)N3C)c(OC)c1	2500 nM	–	–	–
COc1ccc(Oc2cc3c(cc2NS(=O)(=O)c2ccccc2)n(C)c(=O)n3C)cc1	1500 nM	–	–	–
CCCOc1cc(OCCCCN)cc(Oc2cc3c(cc2NS(=O)(=O)c2ccc(OC)c(OC)c2)n(C)c(=O)n3C)c1	8.3 nM	59 nM	42 µM (≈ 25.8 µg/mL)	–
CCCOc1cc(OCCCCCCNC(=O)OC(C)(C)C)cc(Oc2cc3c(cc2NS(=O)(=O)c2cn(C)cn2)n(C)c(=O)n3C)c1	160 nM	5500 nM	–	–
COc1ccc(S(=O)(=O)Nc2cc3c(cc2Oc2cccc(OCCCCN(C)C)c2)n(C)c(=O)n3C)cc1OC	270 nM	3200 nM	66 µM (≈ 38.6 µg/mL)	–
CC(C)COc1ccc(S(=O)(=O)Nc2ccc3c(c2)CCC(=O)N3C)cc1	3700 nM	–	–	–
CC(C)COc1ccc(S(=O)(=O)Nc2ccc3c(c2)n(C)c(=O)n3C)cc1	4000 nM	–	–	–
CSc1ccc(S(=O)(=O)Nc2ccc3c(c2)n(C)c(=O)n3C)cc1	4900 nM	–	–	–
CCCOc1cc(OCCCCN(C)C)cc(Oc2cc3c(cc2NS(=O)(=O)c2ccc(OC)c(OC)c2)n(C)c(=O)n3C)c1	–	–	76 µM (≈ 48.9 µg/mL)	bioavailability [5]: 29%; half-life [6]: 42 min; clearance [7]: 43 mL/min/kg
CCCOc1cc(OCCCCCCN)cc(Oc2cc3c(cc2NS(=O)(=O)c2cn(C)cn2)n(C)c(=O)n3C)c1	10 nM	170 nM	–	–
